In PubChem BioAssay AID1259407 (Chemical Carcinogenesis Research Information System (CCRIS), 2018) one finds mutagenic call data, which are given here for 2 molecules.

In the series the test system is CCRIS mutagenicity, Ames/micronucleus/aberration tests. The experiment in a line: CCRIS mutagenicity studies.

Active and inactive are the calls of the source. The rule behind the calls is not given here.

Turning to `CC[n+]1c(-c2ccccc2)c2cc(N)ccc2c2ccc(N)cc21`, the mutagenic call is, setting by setting: (End Point: IN VITRO MICRONUCLEUS, Test System: CHO CELLS, Metabolic Activation: RAT, LIVER, S-9, AROCLOR 1254) “inactive; negative”; (Test System: AMES SALMONELLA TYPHIMURIUM, Strain/Indicator: TA97A, Metabolic Activation: NONE, Method: STANDARD PLATE) “inactive; negative”; (Test System: AMES SALMONELLA TYPHIMURIUM, Strain/Indicator: TA97A, Metabolic Activation: RAT LIVER S-9, AROCLOR 1254, Method: STANDARD PLATE) “active; positive”; (Test System: AMES SALMONELLA TYPHIMURIUM, Strain/Indicator: TA98, Metabolic Activation: NONE, Method: STANDARD PLATE) “inactive; negative”; (Test System: AMES SALMONELLA TYPHIMURIUM, Strain/Indicator: TA98, Metabolic Activation: RAT LIVER S-9, AROCLOR 1254, Method: STANDARD PLATE) “active; positive”; (Test System: AMES SALMONELLA TYPHIMURIUM, Strain/Indicator: TA98, Metabolic Activation: RAT, LIVER, S-9, AROCLOR 1254, HAMSTER, LIVER, S-9, AROCLOR 1254, Method: STANDARD PLATE) “active; positive”. The mutagenic call by setting is: (Test System: AMES SALMONELLA TYPHIMURIUM, Strain/Indicator: TA98, Metabolic Activation: RAT, LIVER, S-9, AROCLOR 1254, Method: STANDARD PLATE) “active; positive”; (Test System: AMES SALMONELLA TYPHIMURIUM, Strain/Indicator: TA98, Metabolic Activation: RAT, LIVER, S-9, AROCLOR 1254 OR PHENOBARBITOL, Method: STANDARD PLATE) “active; positive”; (Test System: AMES SALMONELLA TYPHIMURIUM, Strain/Indicator: TA100, Metabolic Activation: NONE, Method: STANDARD PLATE) “inactive; negative”; (Test System: AMES SALMONELLA TYPHIMURIUM, Strain/Indicator: TA100, Metabolic Activation: RAT LIVER S-9, AROCLOR 1254, Method: STANDARD PLATE) “inactive; negative”; (Test System: AMES SALMONELLA TYPHIMURIUM, Strain/Indicator: TA100, Metabolic Activation: RAT, LIVER, S-9, AROCLOR 1254 OR PHENOBARBITOL, Method: STANDARD PLATE) “inactive; negative”; (Test System: AMES SALMONELLA TYPHIMURIUM, Strain/Indicator: TA102, Metabolic Activation: NONE, Method: STANDARD PLATE) “inactive; negative”. Moreover, the mutagenic call is “active; positive” (Test System: AMES SALMONELLA TYPHIMURIUM, Strain/Indicator: TA102, Metabolic Activation: RAT LIVER S-9, AROCLOR 1254, Method: STANDARD PLATE); “inactive; negative” (Test System: AMES SALMONELLA TYPHIMURIUM, Strain/Indicator: TA1535, Metabolic Activation: NONE, Method: STANDARD PLATE); “inactive; negative” (Test System: AMES SALMONELLA TYPHIMURIUM, Strain/Indicator: TA1535, Metabolic Activation: RAT LIVER S-9, AROCLOR 1254, Method: STANDARD PLATE); “inactive; negative” (Test System: AMES SALMONELLA TYPHIMURIUM, Strain/Indicator: TA1535, Metabolic Activation: RAT, LIVER, S-9, AROCLOR 1254 OR PHENOBARBITOL, Method: STANDARD PLATE); “inactive; negative” (Test System: AMES SALMONELLA TYPHIMURIUM, Strain/Indicator: TA1537, Metabolic Activation: NONE, Method: STANDARD PLATE); “active; positive” (Test System: AMES SALMONELLA TYPHIMURIUM, Strain/Indicator: TA1537, Metabolic Activation: RAT LIVER S-9, AROCLOR 1254, Method: STANDARD PLATE). The mutagenic call is “active; positive” (Test System: AMES SALMONELLA TYPHIMURIUM, Strain/Indicator: TA1537, Metabolic Activation: RAT, LIVER, S-9, AROCLOR 1254, HAMSTER, LIVER, S-9, AROCLOR 1254 (2.5-20%), Method: STANDARD PLATE); “active; positive” (Test System: AMES SALMONELLA TYPHIMURIUM, Strain/Indicator: TA1537, Metabolic Activation: RAT, LIVER, S-9, AROCLOR 1254, HAMSTER, LIVER, S-9, AROCLOR 1254, Method: STANDARD PLATE); “active; positive” (Test System: AMES SALMONELLA TYPHIMURIUM, Strain/Indicator: TA1537, Metabolic Activation: RAT, LIVER, S-9, AROCLOR 1254 OR PHENOBARBITOL, Method: STANDARD PLATE); “inactive; negative” (Test System: AMES SALMONELLA TYPHIMURIUM, Strain/Indicator: TA1538, Metabolic Activation: NONE, Method: STANDARD PLATE); “active; positive” (Test System: AMES SALMONELLA TYPHIMURIUM, Strain/Indicator: TA1538, Metabolic Activation: RAT LIVER S-9, AROCLOR 1254, Method: STANDARD PLATE); “active; positive” (Test System: AMES SALMONELLA TYPHIMURIUM, Strain/Indicator: TA1538, Metabolic Activation: RAT, LIVER, S-9, AROCLOR 1254, HAMSTER, LIVER, S-9, AROCLOR 1254, Method: STANDARD PLATE). In addition, the mutagenic call was “active; positive” (Test System: AMES SALMONELLA TYPHIMURIUM, Strain/Indicator: TA1538, Metabolic Activation: RAT, LIVER, S-9, AROCLOR 1254, Method: STANDARD PLATE); “active; positive” (Test System: AMES SALMONELLA TYPHIMURIUM, Strain/Indicator: TA1538, Metabolic Activation: RAT, LIVER, S-9, AROCLOR 1254 OR PHENOBARBITOL, Method: STANDARD PLATE); “inactive; negative” (Test System: CHINESE HAMSTER OVARY, Strain/Indicator: CHO-K1-BH4 (HGPRT)/6-THIOGUANINE, Metabolic Activation: NONE, Method: SUSPENSION/PLATE); “inactive; negative” (Test System: CHINESE HAMSTER OVARY, Strain/Indicator: CHO-K1-BH4 (HGPRT)/6-THIOGUANINE, Metabolic Activation: S-9, Method: SUSPENSION/PLATE); “inactive; negative” (Test System: CHINESE HAMSTER OVARY, Strain/Indicator: CHO-K1-BH4 (HGPRT), Metabolic Activation: NONE, Method: SUSPENSION/PLATE); “inactive; negative” (Test System: CHINESE HAMSTER OVARY, Strain/Indicator: CHO-K1-BH4 (HGPRT), Metabolic Activation: RAT, LIVER, S-9, AROCLOR, Method: SUSPENSION/PLATE). Further, the mutagenic call by setting is: (Test System: CHINESE HAMSTER V-79, Strain/Indicator: V-79/6-THIOGUANINE, Metabolic Activation: NONE, Method: FLASK ASSAY) “inactive; negative”; (Test System: E. COLI, Strain/Indicator: WP2, Metabolic Activation: NONE, Method: PREINCUBATION) “inactive; negative”; (Test System: E. COLI, Strain/Indicator: WP2 UVRA, Metabolic Activation: NONE, Method: PREINCUBATION) “inactive; negative”; (Test System: MOUSE LYMPHOMA, Strain/Indicator: L5178Y (TK+/TK-), Metabolic Activation: RAT, LIVER, S-9, AROCLOR 1254, Method: SUSPENSION/PLATE) “active; positive. reevaluation of results: positive”; (Test System: MOUSE LYMPHOMA, Strain/Indicator: L5178Y (TK+/TK-), Metabolic Activation: S-9, Method: SUSPENSION/PLATE) “inactive; negative”.

With `Fc1cnc2ccc3ccccc3c2c1`, the mutagenic call (Test System: AMES SALMONELLA TYPHIMURIUM, Strain/Indicator: TA100, Metabolic Activation: RAT, LIVER, S-9, PHENOBARBITAL AND 5,6-BENZOFLAVONE, Method: PREINCUBATION) was “active; positive”.
